Test results from patent publication US20060037085A1, “Animal model for fetal alcohol syndrome and methods of treatment” (priority 2004, published 2006).
Read-outs that look alike come from different tables or passages of the source.

Columns and labels:
Sox17, Pax6 and VegT = assay: Animal cap explant assay, RT-PCR of gut developmental genes; format: cell-based, Xenopus laevis; details: alcohol
Source text: Animal cap explant assay. […] Total RNA was extracted from animal caps or whole embryos using TRIZOL reagent (Invitrogen). The total RNA was reverse transcribed using the Superscript system (Invitrogen), and the first strand cDNA of the target gene amplified by PCR.

[1] = 0.5% alcohol stage 13 to 22, uninjected
[2] = 0.5% alcohol, pCMS vector-injected embryos

Experimental for Xenopus laevis embryos: Midneurala stage embryos were kept in either the control 10% MSS medium or the same medium supplemented with 0.5% alcohol. The embryos were allowed to grow until the control embryos (no alcohol) reached the tadpole stage (stages 45-46). All the embryos were then fixed and their body length and gut morphologies were recorded.
Embryos were injected with pCMS, pCMS-mtPRDX5, pCMS-cpPRDX5 or pCMS-Catalase expression plasmid, and then maintained in medium with or without 0.5% alcohol. When the tadpoles of control group reached stages 45-46, all the tadpoles were fixed and their gut developmental stages and body lengths were measured and used for the correlation studies. […] Embryos were injected with pCMS, pCMS-mtPRDX5, or pCMS-Catalase expression plasmid, and then treated with or without alcohol as indicated. The expression of the gut markers was determined by RT-PCR.
We also examined the correlation between the stage of gut development and body length in each individual tadpole.

CCO [Ethanol, ethanol]
expression of Sox17, Pax6 and VegT (Sox17, Pax6 and VegT): suppressed the expression | Body length (% no alcohol control) (Xenopus laevis embryos; [1]): 87 ± 2.7 % no alcohol control | Number of embryos in gut developmental stage 43 (Xenopus laevis embryos; [1]): 8 | Number of embryos in gut developmental stage 44 (Xenopus laevis embryos; [1]): 7 | Number of embryos in gut developmental stage 45 (Xenopus laevis embryos; [1]): 2 | Number of embryos in gut developmental stage 46 (Xenopus laevis embryos; [1]): 0 | Number of embryos in gut developmental stage 42 (Xenopus laevis embryos; 0.5% alcohol stage 13 to 22, uninjected, scored when controls reached stages 45-46): 3 | Body length (% no alcohol control) (Xenopus laevis embryos; [2]): 85 ± 3.1 % no alcohol control | Number of embryos in gut developmental stage 42 (Xenopus laevis embryos; [2]): 3 | Number of embryos in gut developmental stage 43 (Xenopus laevis embryos; [2]): 7 | Number of embryos in gut developmental stage 44 (Xenopus laevis embryos; [2]): 9 | Number of embryos in gut developmental stage 45 (Xenopus laevis embryos; [2]): 1 | Number of embryos in gut developmental stage 46 (Xenopus laevis embryos; [2]): 0 | outcome of sustained alcohol exposure (Xenopus laevis embryos; sustained exposure of alcohol from stage 13): caused the death of tadpoles at around stages 45-50 | gut maturation (looping pattern of the tadpole gut) (Xenopus laevis embryos; transient 0.5% alcohol exposure between stages 13-22): significant delay in gut maturation | gut morphology, alcohol-treated vs control groups (Xenopus laevis embryos; transient alcohol exposure, gut examined at stage 60): no difference
